In PubChem BioAssay AID1259407 (Chemical Carcinogenesis Research Information System (CCRIS), 2018):
Calls of active or inactive are those of the source. How the calls were made is not given here.

Test system: CCRIS mutagenicity, Ames/micronucleus/aberration tests
Assay: CCRIS mutagenicity studies
[1] = Test System: AMES SALMONELLA TYPHIMURIUM, Strain/Indicator: TA97, Metabolic Activation: NONE, Method: PREINCUBATION
[2] = Test System: AMES SALMONELLA TYPHIMURIUM, Strain/Indicator: TA98, Metabolic Activation: NONE, Method: PREINCUBATION
[3] = Test System: AMES SALMONELLA TYPHIMURIUM, Strain/Indicator: TA100, Metabolic Activation: NONE, Method: PREINCUBATION
[4] = Test System: AMES SALMONELLA TYPHIMURIUM, Strain/Indicator: TA1535, Metabolic Activation: NONE, Method: PREINCUBATION
[5] = Test System: AMES SALMONELLA TYPHIMURIUM, Strain/Indicator: TA1537, Metabolic Activation: NONE, Method: PREINCUBATION
[6] = Test System: AMES SALMONELLA TYPHIMURIUM, Strain/Indicator: TA98, Metabolic Activation: NONE, Method: STANDARD PLATE
[7] = Test System: AMES SALMONELLA TYPHIMURIUM, Strain/Indicator: TA100, Metabolic Activation: NONE, Method: STANDARD PLATE
[8] = Test System: AMES SALMONELLA TYPHIMURIUM, Strain/Indicator: TA1538, Metabolic Activation: NONE, Method: STANDARD PLATE

For `COc1ccc(C(=O)Nc2ccccc2)cc1[N+](=O)[O-]`, the mutagenic call (Test System: AMES SALMONELLA TYPHIMURIUM, Strain/Indicator: TA97, Metabolic Activation: HAMSTER, LIVER, S-9, AROCLOR 1254 (10%), Method: PREINCUBATION) was “active; positive”, the mutagenic call [1] was “inactive; negative” and the mutagenic call (Test System: AMES SALMONELLA TYPHIMURIUM, Strain/Indicator: TA97, Metabolic Activation: RAT, LIVER, S-9, AROCLOR 1254 (10%), Method: PREINCUBATION) was “active; positive”. The mutagenic call (Test System: AMES SALMONELLA TYPHIMURIUM, Strain/Indicator: TA98, Metabolic Activation: HAMSTER, LIVER, S-9, AROCLOR 1254 (10%), Method: PREINCUBATION) was “active; positive”, the mutagenic call [2] was “inactive; negative” and the mutagenic call (Test System: AMES SALMONELLA TYPHIMURIUM, Strain/Indicator: TA98, Metabolic Activation: RAT, LIVER, S-9, AROCLOR 1254 (10%), Method: PREINCUBATION) was “active; positive”. The mutagenic call (Test System: AMES SALMONELLA TYPHIMURIUM, Strain/Indicator: TA100, Metabolic Activation: HAMSTER, LIVER, S-9, AROCLOR 1254 (10%), Method: PREINCUBATION) was “active; positive”, the mutagenic call [3] was “active; positive” and the mutagenic call (Test System: AMES SALMONELLA TYPHIMURIUM, Strain/Indicator: TA100, Metabolic Activation: RAT, LIVER, S-9, AROCLOR 1254 (10%), Method: PREINCUBATION) was “active; positive”. The mutagenic call (Test System: AMES SALMONELLA TYPHIMURIUM, Strain/Indicator: TA1535, Metabolic Activation: HAMSTER, LIVER, S-9, AROCLOR 1254 (10%), Method: PREINCUBATION) was “inactive; negative”, the mutagenic call [4] was “inactive; negative” and the mutagenic call (Test System: AMES SALMONELLA TYPHIMURIUM, Strain/Indicator: TA1535, Metabolic Activation: RAT, LIVER, S-9, AROCLOR 1254 (10%), Method: PREINCUBATION) was “inactive; negative”. The mutagenic call (Test System: AMES SALMONELLA TYPHIMURIUM, Strain/Indicator: TA1537, Metabolic Activation: HAMSTER, LIVER, S-9, AROCLOR 1254 (10%), Method: PREINCUBATION) was “active; positive”, the mutagenic call [5] was “inactive; negative” and the mutagenic call (Test System: AMES SALMONELLA TYPHIMURIUM, Strain/Indicator: TA1537, Metabolic Activation: RAT, LIVER, S-9, AROCLOR 1254 (10%), Method: PREINCUBATION) was “active; positive”.

`N[C@@H](CC(=O)O)C(=O)O` was tested, and the mutagenic call (End Point: In vivo micronucleus, Test System: Bone marrow erythrocytes, Species: Mouse, Strain/Sex: Crl:CD1 (ICR)/Male and female, Route: Oral) was “inactive; negative”, the mutagenic call [1] was “inactive; negative” and the mutagenic call (Test System: AMES SALMONELLA TYPHIMURIUM, Strain/Indicator: TA97, Metabolic Activation: RAT, LIVER, S-9, AROCLOR 1254, Method: PREINCUBATION) was “inactive; negative”. For the same molecule, the mutagenic call [2] was “inactive; negative”, the mutagenic call (Test System: AMES SALMONELLA TYPHIMURIUM, Strain/Indicator: TA98, Metabolic Activation: RAT LIVER S-9, PHENOBARBITAL AND BETA-NAPHTHOFLAVONE, Method: PREINCUBATION) was “inactive; negative” and the mutagenic call [3] was “inactive; negative”. For the same molecule, the mutagenic call (Test System: AMES SALMONELLA TYPHIMURIUM, Strain/Indicator: TA100, Metabolic Activation: RAT LIVER S-9, PHENOBARBITAL AND BETA-NAPHTHOFLAVONE, Method: PREINCUBATION) was “inactive; negative”, the mutagenic call (Test System: AMES SALMONELLA TYPHIMURIUM, Strain/Indicator: TA102, Metabolic Activation: NONE, Method: PREINCUBATION) was “inactive; negative” and the mutagenic call (Test System: AMES SALMONELLA TYPHIMURIUM, Strain/Indicator: TA102, Metabolic Activation: RAT, LIVER, S-9, AROCLOR 1254, Method: PREINCUBATION) was “inactive; negative”. For the same molecule, the mutagenic call [4] was “inactive; negative”, the mutagenic call (Test System: AMES SALMONELLA TYPHIMURIUM, Strain/Indicator: TA1535, Metabolic Activation: RAT LIVER S-9, PHENOBARBITAL AND BETA-NAPHTHOFLAVONE, Method: PREINCUBATION) was “inactive; negative” and the mutagenic call [5] was “inactive; negative”. The mutagenic call (Test System: AMES SALMONELLA TYPHIMURIUM, Strain/Indicator: TA1537, Metabolic Activation: RAT LIVER S-9, PHENOBARBITAL AND BETA-NAPHTHOFLAVONE, Method: PREINCUBATION) was “inactive; negative”, the mutagenic call (Test System: Ames Salmonella typhimurium, Strain/Indicator: TA98, Species: None, Method: Standard plate) was “inactive; negative” and the mutagenic call (Test System: Ames Salmonella typhimurium, Strain/Indicator: TA98, Species: Rat, Liver, S-9, Aroclor 1254 (10%), Method: Standard plate) was “inactive; negative”. For the same molecule, the mutagenic call (Test System: Ames Salmonella typhimurium, Strain/Indicator: TA100, Species: None, Method: Standard plate) was “inactive; negative”, the mutagenic call (Test System: Ames Salmonella typhimurium, Strain/Indicator: TA100, Species: Rat, Liver, S-9, Aroclor 1254 (10%), Method: Standard plate) was “inactive; negative” and the mutagenic call (Test System: Ames Salmonella typhimurium, Strain/Indicator: TA1535, Species: None, Method: Standard plate) was “inactive; negative”. The mutagenic call (Test System: Ames Salmonella typhimurium, Strain/Indicator: TA1535, Species: Rat, Liver, S-9, Aroclor 1254 (10%), Method: Standard plate) was “inactive; negative”, the mutagenic call (Test System: Ames Salmonella typhimurium, Strain/Indicator: TA1537, Species: None, Method: Standard plate) was “inactive; negative” and the mutagenic call (Test System: Ames Salmonella typhimurium, Strain/Indicator: TA1537, Species: Rat, Liver, S-9, Aroclor 1254 (10%), Method: Standard plate) was “inactive; negative”. The mutagenic call (Test System: E. coli, Strain/Indicator: WP2 uvrA, Metabolic Activation: None, Method: Standard plate) was “inactive; negative”, the mutagenic call (Test System: E. coli, Strain/Indicator: WP2 uvrA, Metabolic Activation: Rat, Liver, S-9, Aroclor 1254 (10%), Method: Standard plate) was “inactive; negative” and the mutagenic call (Test System: E.COLI, Strain/Indicator: WP2UVRA/PKM101, Metabolic Activation: NONE, Method: PREINCUBATION) was “inactive; negative”. For the same molecule, the mutagenic call (Test System: E.COLI, Strain/Indicator: WP2UVRA/PKM101, Metabolic Activation: RAT LIVER S-9, PHENOBARBITAL AND BETA-NAPHTHOFLAVONE, Method: PREINCUBATION) was “inactive; negative”.

In the case of `Nc1ccc2[nH]c3ccccc3c2c1`, the mutagenic call [6] is reported as “inactive; negative”, the mutagenic call (Test System: AMES SALMONELLA TYPHIMURIUM, Strain/Indicator: TA98, Metabolic Activation: RAT LIVER S-9, AROCLOR 1254, Method: STANDARD PLATE) is reported as “active; positive” and the mutagenic call (Test System: AMES SALMONELLA TYPHIMURIUM, Strain/Indicator: TA98, Metabolic Activation: RAT, LIVER, S-9, PHENOBARBITAL, Method: STANDARD PLATE) is reported as “active; positive”. The mutagenic call [7] was “inactive; negative”, the mutagenic call (Test System: AMES SALMONELLA TYPHIMURIUM, Strain/Indicator: TA100, Metabolic Activation: RAT LIVER S-9, AROCLOR 1254, Method: STANDARD PLATE) was “inactive; negative” and the mutagenic call (Test System: AMES SALMONELLA TYPHIMURIUM, Strain/Indicator: TA100, Metabolic Activation: RAT, LIVER, S-9, PHENOBARBITAL, Method: STANDARD PLATE) was “inactive; negative”. For the same molecule, the mutagenic call (Test System: AMES SALMONELLA TYPHIMURIUM, Strain/Indicator: TA1537, Metabolic Activation: NONE, Method: STANDARD PLATE) was “inactive; negative”, the mutagenic call (Test System: AMES SALMONELLA TYPHIMURIUM, Strain/Indicator: TA1537, Metabolic Activation: RAT, LIVER, S-9, PHENOBARBITAL, Method: STANDARD PLATE) was “inactive; negative” and the mutagenic call [8] was “inactive; negative”. For the same molecule, the mutagenic call (Test System: AMES SALMONELLA TYPHIMURIUM, Strain/Indicator: TA1538, Metabolic Activation: RAT, LIVER, S-9, PHENOBARBITAL, Method: STANDARD PLATE) was “active; positive”, the mutagenic call (Test System: AMES SALMONELLA TYPHIMURIUM, Strain/Indicator: TA1977, Metabolic Activation: NONE, Method: STANDARD PLATE) was “inactive; negative” and the mutagenic call (Test System: AMES SALMONELLA TYPHIMURIUM, Strain/Indicator: TA1977, Metabolic Activation: RAT, LIVER, S-9, PHENOBARBITAL, Method: STANDARD PLATE) was “inactive; negative”.

For `CCOc1cc(N=Nc2ccc(N(CC)CC)cc2)ccc1N=Nc1c(S(=O)(=O)O)cc2ccc(N)cc2c1O`, the mutagenic call [6] was “inactive; negative”, the mutagenic call (Test System: AMES SALMONELLA TYPHIMURIUM, Strain/Indicator: TA98, Metabolic Activation: RAT, LIVER, S-9, AROCLOR 1254, Method: STANDARD PLATE) was “active; positive” and the mutagenic call [7] was “inactive; negative”. The mutagenic call (Test System: AMES SALMONELLA TYPHIMURIUM, Strain/Indicator: TA100, Metabolic Activation: RAT, LIVER, S-9, AROCLOR 1254, Method: STANDARD PLATE) was “inactive; negative”, the mutagenic call [8] was “inactive; negative” and the mutagenic call (Test System: AMES SALMONELLA TYPHIMURIUM, Strain/Indicator: TA1538, Metabolic Activation: RAT, LIVER, S-9, AROCLOR 1254, Method: STANDARD PLATE) was “active; positive”.
